The source of these data is publication PMC7852560 (Neuropsychopharmacology, 2020).

One series in a line: in vitro. The format is in vitro ADME, rat. To be noted: pH 7.4. The protocol:
Microsomal stability assays were conducted by Cyprotex Ltd (Macclesfield, UK).
The study of drug stability in the presence of liver microsomes is accepted as a valuable model for permitting rapid prediction of in vivo drug stability (see Kerns & Di, 2008). Microsomal stability studies were performed by Cyprotex Ltd (Macclesfield, UK). […] Microsomes (final protein concentration 0.5 mg/mL), 0.1 M phosphate buffer pH 7.4, and test compound (final concentration 3 μM; diluted from 10 mM stock solution to give a final DMSO concentration of 0.25%) were incubated at 37°C prior to the addition of NADPH (final concentration 1 mM) to initiate the reaction with a final incubation volume of 25 µL. A control incubation was included for each compound tested, where 0.1 M phosphate buffer pH 7.4 was added instead of NADPH. The control compounds testosterone and 7-hydroxycoumarin were included in each experiment and all incubations were performed singularly for each compound. […] Following protein precipitation, the sample supernatants were combined in cassettes of up to 4 compounds and analyzed using standard LC-MS/MS conditions. From a plot of the natural logarithm of the peak area ratio (i.e., the ratio of compound peak area: internal standard peak area) against time, the gradient of the line was determined. Subsequently, half-life and intrinsic clearance were calculated using the equations below: […]

Another series has as its target CB1R (Homo sapiens, UniProt P21554). Put plainly: Equilibrium binding assay with [3H]CP55,940 in hCB1R CHO cells. The procedure: Non-specific binding was defined in the presence of 10 µM WIN55,212-2.
Radioactivity was quantitated by liquid scintillation spectrometry. Specific binding was defined as the difference between the binding that occurred in the presence and absence of 10 µM of WIN55212. Data were analyzed by nonlinear regression analysis of allosteric modulator titration model using GraphPad Prism 8.0 (GraphPad, San Diego, CA).

The next series concerns Male Sprague Dawley rats. In words: Conditioned avoidance response (CAR). In kind it is in vivo. To be noted: rat, in vivo. The procedure:
Male Sprague Dawley rats (PD>63) were trained on a CAR protocol and responding following drug exposure was determined. […] Animals were trained to learn a house light (CS) as predictive of an avoidable 0.6mA scrambled foot shock (US). Each session consisted of 50 trials and animals avoided >70% of trials on the final acquisition session were tested for CAR during vehicle baseline, drug exposure, and re-emergence. In addition to CAR testing, both temperature and catalepsy were recorded in these animals (measure of potential CB1R agonism). Temperature: recorded on first day of drug exposure, prior to injection and 60-90-min. following drug exposure.

The target in another series is T1, 5HT2A (Homo sapiens, UniProt P28223).
T1 construct: Eurofins Cerep
In words: SafetyScreen44 panel: 5HT2A. The format is binding. The conditions noted are these: 1 µM. The source says:
See https://www.eurofinsdiscoveryservices.com.

The target of a further series is T2, 5HT1A (Homo sapiens, UniProt P08908).
T2 construct: Eurofins Cerep
T2 sequence (P08908 1-422): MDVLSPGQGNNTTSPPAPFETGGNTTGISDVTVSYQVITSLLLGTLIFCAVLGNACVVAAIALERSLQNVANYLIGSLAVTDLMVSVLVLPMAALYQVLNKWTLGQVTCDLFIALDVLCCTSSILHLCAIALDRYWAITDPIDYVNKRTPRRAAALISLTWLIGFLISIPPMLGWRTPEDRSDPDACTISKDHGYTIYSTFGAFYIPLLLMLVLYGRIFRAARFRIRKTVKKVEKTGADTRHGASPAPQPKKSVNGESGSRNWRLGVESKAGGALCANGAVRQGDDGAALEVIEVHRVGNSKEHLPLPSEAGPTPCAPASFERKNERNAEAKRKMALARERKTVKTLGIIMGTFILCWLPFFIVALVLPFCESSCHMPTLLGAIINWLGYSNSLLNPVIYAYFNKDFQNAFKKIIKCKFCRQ
In words: SafetyScreen44 panel: 5HT1A. The format is binding. The conditions noted are these: 1 µM. The protocol: (§1) The screen assesses the selectivity of the compound on a diverse panel of targets that includes GPCRs, drug transporters, ion channels, nuclear receptors, kinases, and other non-kinase enzymes. The screen employs radioligand binding or enzyme assays for these 44 targets.
(§2) For receptor assays, binding was calculated as percent inhibition of the binding of a radioactively labeled ligand specific for each target. For enzyme assays, the inhibition effect was calculated as percent inhibition of control enzyme activity. Tests were performed in duplicate, and results are averages of those two tests. See https://www.eurofinsdiscoveryservices.com.

The next series concerns the target T3, CB2 (Homo sapiens, UniProt P34972).
T3 construct: Eurofins Cerep
In words: SafetyScreen44 panel: CB2. The format is binding. To be noted: 1 µM. The procedure: as §1, §2

In a further series the test system is Male C57Bl/6J mice. In words: Cannabinoid-induced tetrad. The format is in vivo. The conditions noted are these: 10 mg/kg i.p., 30 min prior. The procedure:
Male C57Bl/6J mice (PD > 70) were tested on the cannabinoid-induced tetrad, as previously described.
(i.p.) before testing. The tetrad was performed (1) catalepsy, (2) locomotion, (3) temperature, and (4) analgesia. Catalepsy: time (s) spent immobile with front paws on a plastic rod (1.5cm diameter), at a height of 4.5-cm from the table, before adjusting abnormal posture (either front paws being removed from the bar, or back paws climbing onto bar). Locomotion: horizontal activity (cm) was immediately measured in an open field test, following catalepsy, for 15-min. in 1-min bins. Temperature: rectal temperature (°C) was measured immediately following open-field testing, using a thermometer with rectal probe (Labcorp, Fisher, Waltham, MA). Analgesia: latency (s) to withdraw tail from hot water bath (52 °C), to assess tail-flick antinociception, was completed immediately following temperature readings.

CB1R, sequence (P21554 whole entry): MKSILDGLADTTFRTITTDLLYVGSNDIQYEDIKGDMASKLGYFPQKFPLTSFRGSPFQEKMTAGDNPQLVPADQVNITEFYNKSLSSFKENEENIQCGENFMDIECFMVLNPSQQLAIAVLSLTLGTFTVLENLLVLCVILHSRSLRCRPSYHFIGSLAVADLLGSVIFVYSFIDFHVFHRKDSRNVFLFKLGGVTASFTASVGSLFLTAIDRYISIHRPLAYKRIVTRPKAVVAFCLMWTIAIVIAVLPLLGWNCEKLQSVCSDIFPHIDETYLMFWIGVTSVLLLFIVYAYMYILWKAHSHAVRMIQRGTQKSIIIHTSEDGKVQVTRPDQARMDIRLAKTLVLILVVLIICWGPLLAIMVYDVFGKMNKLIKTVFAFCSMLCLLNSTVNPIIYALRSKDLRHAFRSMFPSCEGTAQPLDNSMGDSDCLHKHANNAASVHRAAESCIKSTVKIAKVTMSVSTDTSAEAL
T1 sequence (P28223 whole entry): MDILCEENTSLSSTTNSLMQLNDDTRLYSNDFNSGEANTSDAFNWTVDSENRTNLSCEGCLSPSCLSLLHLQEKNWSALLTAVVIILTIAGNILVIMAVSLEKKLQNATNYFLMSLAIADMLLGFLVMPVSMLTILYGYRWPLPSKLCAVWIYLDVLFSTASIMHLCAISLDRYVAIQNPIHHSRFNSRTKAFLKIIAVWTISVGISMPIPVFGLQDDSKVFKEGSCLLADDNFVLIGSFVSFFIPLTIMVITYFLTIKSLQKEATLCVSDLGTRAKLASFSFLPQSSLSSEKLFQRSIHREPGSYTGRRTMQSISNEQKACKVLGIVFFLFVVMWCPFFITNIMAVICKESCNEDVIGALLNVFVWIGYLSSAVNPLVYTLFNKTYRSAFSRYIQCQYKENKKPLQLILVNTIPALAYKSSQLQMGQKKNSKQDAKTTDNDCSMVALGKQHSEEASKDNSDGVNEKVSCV
T3 sequence (P34972 whole entry): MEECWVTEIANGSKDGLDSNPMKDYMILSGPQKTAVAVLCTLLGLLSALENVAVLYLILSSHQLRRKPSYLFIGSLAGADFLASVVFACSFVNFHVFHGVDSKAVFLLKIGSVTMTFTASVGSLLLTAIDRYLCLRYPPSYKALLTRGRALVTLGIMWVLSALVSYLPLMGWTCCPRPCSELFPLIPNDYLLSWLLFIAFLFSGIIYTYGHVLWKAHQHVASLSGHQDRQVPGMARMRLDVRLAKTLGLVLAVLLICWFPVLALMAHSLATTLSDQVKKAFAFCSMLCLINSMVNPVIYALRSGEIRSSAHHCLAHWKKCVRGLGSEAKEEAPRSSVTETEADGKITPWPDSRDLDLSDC

In “in vitro” (microsomes, rat liver microsomal preparations), `CCc1c(-c2nnc(Nc3ccccc3)o2)[nH]c2ccc(Cl)cc12` [ABM300, 5-(5-chloro-3-ethyl-1H-indol-2-yl)-N-phenyl-1,3,4-oxadiazol-2-amine] had a half-life at 3 µM of 1.83 h. This molecule showed a microsomal CLint at 3 µM in the series “in vitro” (rat liver microsomes) of 12.6 ± 2 µL/min/mg. This molecule gave a Kb at CB1R of 178 nM. Moreover, at CB1R (EC50, increase in specific binding of [3H]CP55,940, hCB1R CHO, [3H]CP55,940 0.5 nM), a half-maximal response (EC50) required 132 nM. The “Emax, increase in specific binding of [3H]CP55,940” value on CB1R (hCB1R CHO, [3H]CP55,940 0.5 nM) turned out to be 328 ± 47%. Moreover, the concentration for a half-maximal effect (EC50) on CB1R (pEC50, increase in specific binding of [3H]CP55,940, hCB1R CHO, [3H]CP55,940 0.5 nM) was 126 nM. Further, the “avoidance behavior in CAR” value with Male Sprague Dawley rats is recorded as “no effect”. The “binding to 5HT2A” value on 5HT2A is “did not display any significant binding”. For the same molecule, the “binding to 5HT1A” value on 5HT1A was “did not display any significant binding”. In addition, the “binding to CB2” value at CB2 is on record as “did not display any significant binding”. In addition, in the series with Male C57Bl/6J mice, the “tetrad: catalepsy-induced immobility time” value is given as “no effect”, the “tetrad: percent inhibition of locomotor activity (15 min)” value is listed as “no effect”, the “tetrad: rectal temperature” value is “no effect” and the “tetrad: tail withdrawal (% MPE)” value is “no effect”.
